In patent US10101331B2, “Methods of evaluating patients using E-cadherin or vimentin” (AGIOS PHARMACEUTICALS, INC, priority 2012, dated 2018):

Tested on: NCI-H358 cell line
Experiment: TGFβ treatment of NCI-H358, western blot phenotype
Type: cell-based
Description: FIG. 4A depicts a western blot analysis of the non-small cell lung cancer cell line NCI-H358 for protein levels of E-cadherin, vimentin, PC ([…]), GLS (phosphate activated glutaminase), and actin (control).
In order to better understand the contribution of mesenchymal versus epithelial phenotype to GLS dependence, the NCI-H358 cell line was treated with TGFβ and the phenotype assayed.

Substance: TGFβ: TGFβ used to induce EMT in the NCI-H358 cell line
- phenotype after TGFβ treatment (E-cadherin/vimentin expression): shift to a mesenchymal phenotype
- increase in GAC protein levels in the mesenchymal variant (TGFβ induced EMT): 2 fold
